Test results as given in patent publication US6329000A, “Extract of pine needle and the use thereof” (priority 1999, dated 2001).

Experiments:
blood pressure = experiment: Clinical test of the composition to lower blood pressure; type: in vivo, human; details: 44 cases per group, 20 days
Experimental: All of them were diagnosed as hypertension according to the diagnostic standard of WHO. […] The patients of the control group were treated with Captopril. The patients of the control group were adults aged below 59, and their average age was 47±7.8. The patients stopped taking hypotensor a week before taking part in the test. […] If the blood pressure was not reduced to the normal scope, then a dose (0.5 g) was increased every 5 days. The crescendo every 5 days, and the maximal dose couldn't exceed 3 g each time and 3 times a day. The whole course of treatment was 20 days. 25 mg Captopril was given to the patients of the control group each time and three times a day. […] The crescendo every 5 days, and the maximal dose couldn't exceed 75 mg each time and three times a day. The whole course of treatment was 20 days too.
The blood pressure before treatment: All the patients stopped taking hypotensor a week before treatment. Then the blood pressure was measured once a day continuously for 5 days. Took the mean of the 5 values (non same day) as the blood pressure before treatment.
The blood pressure after treatment: Measured the blood pressure once a day after the treatment. Took the mean of the 5 values measured on the 16th, 17th, 18th, 19th, 20th day after the treatment as the blood pressure after the treatment. Examined the blood routine, the urine routine, the functions of liver, the renal function, the serum electrolyte (including K^+, Na^+, Cl^-), the blood-lipid, the blood sugar, the ECG of every day before and after the treatment.
The criteria of therapeutic effect:
As to the systolic hypertension, the systolic pressure was reduced more than 4 kpa. Ineffectiveness: The decrement of the blood pressure after the treatment didn't achieve the above standard.

blood-lipid = experiment: Hypolipidemic test in rabbits on high fat diet; type: in vivo, rabbit; details: positive control 0.3 g/kg/d
Experimental: Experimental animals: 60 Beijing white rabbits with big ears, all male with body weight of 1.5-2 kg.
Drugs and reagents: cholesterol (produced at Beijing Chemical Reagent Company). Propyl thiooxyuracil tablet (refers to PTV hereafter, produced in Germany, 50 mg each tablet), lard (prepared by ourselves). The extract powder from pine needle of the invention (refers to the power of pine needle hereafter). Inostitol hexanicotinate tablet (produced by the second Pharmaceutical Factory of Beijing, 0.2 each tablet). The kits of total cholesterol, triglyceride, high density lipoprotein, and low density lipoprotein (produced by Beijing Zhongsheng Biotechnical Company).
Methods: The white rabbits with big ears were divided into 5 groups at random after raised for 10 days with normal diet. 10 rabbits each group. The high fat diet was given after taking blood from the helicine veins of the fasting rabbits in the morning. Determined the blood-lipid of the blood samples. The high fat diet included cholesterol 2 g/kg (body weight)/d, lard 0.5 g/kg/d, PTV 12.5 mg/kg/d. In the forth group, gave […] of the powder of pine needle along with the high fat diet to the rabbits of (the prevention group). Took blood from the fasting rabbits again and determined their body weights after 15 days of high-fat diet. Then stopped the high-fat diet and changed it for normal diet: (1) blank control group: giving distilled water 10 ml each day with the gavage method; (2) positive control group: giving Inositol hexnicotinate tablets, 0.3 g/kg/d; (3) low dose group: giving the powder of pine needle, 0.25 g/kg/d; (4) prevention group: went on giving the powder of pine needle 0.75 g/kg/d, 30 days in all; (5) high dose group: giving the powder of pine needle, 1.5 g/kg/d. The powder was dissolve din 10 ml distilled water and gave it with gavage method once a day. Took blood from the fasting rabbits on the fifteenth day after the administration to determine the levels of blood-lipid. The levels of total cholestorol, triglyceride, high density lipoprotein and low density lipoprotein were examined by CHOO-PAP method, GPO-PAP method, PTA-Mg^2+ deposition method and PVS one-step deposition method, respectively. The instrument used was Hitachi, Model 750 automatic biochemical analyzer.

| SMILES | Effectiveness (blood pressure) [case number] | ineffectiveness (blood pressure) [case number] | total effective rate (blood pressure) [%] | remarkable effectiveness (blood pressure; composition 1.5-3 g t.i.d., captopril 25-75 mg t.i.d.) [case number] | high density lipoprotein IR % (increasing rate) (blood-lipid) [%] | low density lipoprotein DR % (blood-lipid) [%] | total cholesterol DR % (decreasing rate) (blood-lipid) [%] | triglyceride DR % (blood-lipid) [%] | high density lipoprotein after treatment (blood-lipid; after HFD 0.83) | triglyceride after treatment (blood-lipid; after HFD 1.87) | low density lipoprotein after treatment (blood-lipid; after HFD 9.20) | total cholesterol after treatment (blood-lipid; after HFD 26.67) |
| --- | --- | --- | --- | --- | --- | --- | --- | --- | --- | --- | --- | --- |
| C[C@H](CS)C(=O)N1CCC[C@H]1C(=O)O [captopril] | 10 | 8 | 82 | 26 |  |  |  |  |  |  |  |  |
| O=C(O[C@H]1[C@H](OC(=O)c2cccnc2)[C@@H](OC(=O)c2cccnc2)[C@H](OC(=O)c2cccnc2)[C@@H](OC(=O)c2cccnc2)[C@H]1OC(=O)c1cccnc1)c1cccnc1 [Inositol hexanicotinate] |  |  |  |  | 8.90 | 37.38 | 28.20 | 16.03 | 0.74 | 1.64 | 5.71 | 19.48 |
